This is an account of results in patent US8729053B2, “Nuclear factor kappa B pathway inhibitor composition and use of same” (The United States of America, as represented by the …, priority 2008, dated 2014).

The assay relates to AP-1. The experiment in a line: AP-1 luciferase reporter assay in HEK293 cells. The format is cell-based. The procedure: All expression plasmids were transiently transfected into HEK293 cells in a 96-well plate (0.1 μg/well) by using Effectene transfection reagent (Qiagen, Valencia, Calif.) according to the manufacturer's manual. HEK293 cells were maintained in Dulbecco's modified Eagle medium (Sigma, St. Louis, Mo.) supplemented with 10% fetal bovine serum (Atlanta Biologicals, Lawrenceville, Ga.) and incubated at 37° C. in a 5% CO2 incubator. After 24 hrs incubation, the medium was changed to DMEM with 0.2% FBS, and the transfectants were exposed to various concentrations of compound I and TPA (10 ng/ml). Cells were lysed with passive lysis buffer and the luciferase assay was performed using the Firefly-Luciferase reporter assay system (Promega, Madison, Wis.) and MLX Luminometer (Dynex Technology, Chantilly, Va.).
Three different luciferase reporter genes, AP-1 reporter containing four times TRE consensus originated from GCN4 and SRE reporter purchased from Stratagene (La Jolla, Calif.) respectively are as described previously (Suzukawa et al., Environ. Health Perspect., 2002, 110, 865-70). NFκB reporter is driven by five times NFκB responsive element inserted into Cis-reporter backbone (Stratagene, La Jolla, Calif.). Others include mouse COX-2 promoter region from −203 to +70 relative to the transcription site inserted into pTIS10L vector (Kim and Fischer, J. Biol. Chem., 1998, 273, 27686-94), human uPAR promoter region from −141 to +47 relative to transcription start site in pGL3 vector (Wang et al., Eur. J. Biochem., 2000, 267, 3248-54), and human VEGF promoter sequence from −2274 to +379 inserted into the pGL2 vector (Ding et al., J. Biol. Chem., 2006, 281, 9093-100). […]

Where a name gives a salt, the structure may show the parent alone.

The term IC50 denotes the concentration that gives 50% inhibition. With `Cc1cc(N)ccc1N=Nc1ccc(S(=O)(=O)CCOS(=O)(=O)O)cc1` [compound I, 2-(4-((4-amino-2-methylphenyl)diazenyl)phenylsulfonyl)ethyl hydrogen sulfate], under “HEK293, 1 h pretreatment, TPA 10 ng/ml 18 hrs, read-out: IC50 for inhibition of TPA induced AP-1”, the IC50 is 17 µM. Besides, the “AP-1 luciferase activity, % of the activity with TPA alone” value (compound at 17.0 μM, HEK293, TPA 10 ng/ml 18 hrs) came to 50%.
